Paper PMC12070314, “Efficient Small-Molecule Reversal Agents for Anticoagulant Fondaparinux” (ACS Pharmacology & Translational Science, 2025)
Like-named read-outs stand apart in the source and are kept apart here.

Tests used:
[1] = earlier work of the authors; reference number not given; read-out: Apparent affinity for heparin, K D^app; cited from earlier work
[2] = Fluorescence titration with fondaparinux; format: binding; details: for Kd: read-out: Apparent overall affinity for fond, K D^app ≈ BC50°
Description: The fluorescence emission spectrum of 3AC upon excitation at 280 nm is a suitable indicator of the interaction with heparin-like GAGs. Thus, the titration of 3AC with fond in Bis-Tris buffer at pH 7.5 produced a perturbation of the corresponding intensity of the fluorene emission band (Figure A), presenting two clearly differentiated phases. At a low fond/3AC ratio, the fluorescence emission intensity decreases most likely due to the proximity of chromophores when several molecules of 3AC are closely bound to one molecule of fond. After reaching a fond/3AC molar ratio of ∼0.6, the emission band starts to recover as 3AC molecules are redistributed to equimolecular complexes with fond. Considering the disaccharide repeating unit of heparin as the main binding epitope of our ligands and the electrostatic charge complementarity, we can hypothesize the formation of fond/3AC supramolecular complexes with both 1:1 and 1:2 stoichiometries as the simplest binding model satisfying the two-phase behavior (Figure B). The emission band variation was successfully fitted to the 1:2 fond/3AC equilibria, rendering the formation constants (log β values) for the corresponding complexes (inset in Figure A).
Fluorescence emission and excitation spectra were collected on a Photon Technology International Instrument, Fluorescence Master Systems, using Felix32 software and cuvettes with 10 mm path length. Stock solutions of 3AC (10 μM) and fondaparinux (0.23 mM, also containing 10 μM 3AC) were prepared in 1 mM Bis-Tris buffer at pH 7.5. Then, 2 mL of binder solution was placed on a quartz cell, and the emission fluorescence spectrum was measured upon excitation at 280 nm. Then, small volumes of fond stock solution were added to the cell, and the fluorescence spectra were acquired after each addition. The titration experiments were fitted using HyperSpec 2008 software, , which allows a nonlinear global fitting of the full emission spectra to a binding mode as defined by the user.

| Kd ([2]; 1 mM Bis-Tris buffer pH 7.5) [µM] | Stepwise binding constant K (1:1) ([2]; fond/3AC 1:1 complex, 1 mM Bis-Tris buffer pH 7.5) | Stepwise binding constant K (1:2) ([2]; fond/3AC 1:2 complex, 1 mM Bis-Tris buffer pH 7.5) | SMILES | Kd [1] [µM] | logβ(3AC-Fond) ([2]; formation constant from model fitting, 1:1 complex) | logβ(3AC2-Fond) ([2]; formation constant from model fitting, 1:2 fond/3AC complex) |
| --- | --- | --- | --- | --- | --- | --- |
| 4.5 ± 0.09 | 2.05 ± 0.05 × 10^5 M^–1 | 1.95 ± 0.19 × 10^4 M^–1 | Oc1ccccc1CNCCCNCCCCNCCCNCc1ccc2c(c1)Cc1ccccc1-2 [Compound 3AC] | ~0.5 | 5.31(1) | 9.60(3) |
| 9.8 ± 0.3 | – | – | Oc1ccc2ccccc2c1CNCCCNCCCCNCCCNCc1c(O)ccc2ccccc12 [Compound 3FF] | – | – | – |
